The text below walks through data of patent US20260125372A1, “DYNAMIN-1-LIKE PROTEIN INHIBITORS AND USES THEREOF” (Astellas Engineered Small Molecules US, Incorporated, priority 2022, published 2026).

pIC50: −log10 of the molar value.

The target in the assay is T1, DRP1 (Homo sapiens, UniProt O00429).
T1 construct: Human DRIP1 (UniProtID: O00429.4, residues 1-699); made in house; host or cells: Escherichia coli BL21 CodonPlus DE3
T1 sequence (O00429 1-699 isoform O00429-4): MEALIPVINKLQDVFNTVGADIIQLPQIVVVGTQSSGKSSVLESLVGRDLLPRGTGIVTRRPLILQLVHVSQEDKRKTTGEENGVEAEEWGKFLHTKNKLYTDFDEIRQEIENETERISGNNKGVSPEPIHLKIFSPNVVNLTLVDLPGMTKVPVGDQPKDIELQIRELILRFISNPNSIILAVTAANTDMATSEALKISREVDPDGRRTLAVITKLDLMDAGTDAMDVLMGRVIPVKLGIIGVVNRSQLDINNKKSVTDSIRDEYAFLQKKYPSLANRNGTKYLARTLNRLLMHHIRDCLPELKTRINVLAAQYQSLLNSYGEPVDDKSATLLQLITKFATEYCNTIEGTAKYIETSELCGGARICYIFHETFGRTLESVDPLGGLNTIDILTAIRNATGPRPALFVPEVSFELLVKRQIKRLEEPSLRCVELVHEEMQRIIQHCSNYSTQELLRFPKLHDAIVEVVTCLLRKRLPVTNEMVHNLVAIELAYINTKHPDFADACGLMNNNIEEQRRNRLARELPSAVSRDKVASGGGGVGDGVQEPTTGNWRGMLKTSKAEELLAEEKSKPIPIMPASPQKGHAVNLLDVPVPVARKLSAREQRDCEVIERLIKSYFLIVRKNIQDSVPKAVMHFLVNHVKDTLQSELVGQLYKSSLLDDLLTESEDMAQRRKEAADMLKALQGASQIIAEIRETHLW
Kind of assay: AlphaLISA assay (His-DRP1 / MiD49-GST interaction). In kind it is binding. Particulars: His-DRP1 200 nM, MiD49-GST 20 nM, GMP-PNP 100 uM. How it is done: Human DRIP1 (UniProtID: O00429.4, residues 1-699), and human MiD49 (UnitProtIS: Q96C03.1, residues 126-454) was cloned into a pET15b vector as an N-terminal His-tag Fusion. All constructs were transformed in Escherichia coli host strain BL21 CodonPlus DE3. Bacteria was grown in LB media with 100 μg/ml ampicillin and 34 μg/ml chloramphenicol in an orbital shaker at 37° C. until OD600 reached 0.4, at which temperature was reduced to 16° C. Recombinant protein expression was expressed for 18 hr by the addition of IPTG at OD600 of about 0.8. All cultures were spun down and bacterial pellets were used for protein purification.
For His-DRP1, the pellets were resuspended in DRP-buffer A (20 mM Tris, 500 KCl, 1.89 β-ME, pH 8.0) and protease inhibitor cocktail (Roche), followed by cell disruption by sonication (400 W, pulse 3 sec on, 3 sec off, total 20 min). The lysate was centrifuged at 20,000 g and then supernatant applied to a preequilibrated Ni-NTA column with DRP-buffer A. The column was extensively washed with buffer A containing 50 mM imidazole. Purified His-DRP1 was eluted with DRP-buffer A containing 250 mM imidazole and dialyzed overnight at 4° C. (18 kDa cutoff) against DRP-buffer A to remove imidazole. For AlphaLISA, the His tag was retained on DRP1 full-length.
For MiD49-GST, the bacterial pellets were resuspended and sonicated in MID lysis buffer (25 mM Tris-HCl, pH 7.5, 500 mM NaCl, 5% glycerol, 1 mM TCEP, and 0.5% CHAPS). The lysate was pre-cleared at 20,300 g before applying to a glutathione column. Unbound proteins were washed using MID-buffer A (25 mM Tris-HCl, pH 7.5, 300 mM NaCl, 5% glycerol, 1 mM TCEP) and MID-buffer B (25 mM Tris-HCl, pH 7.5, 300 mM NaCl, 5% glycerol, 1 mM TCEP, 1 mM GSH). The protein was eluted with MID-buffer C (25 mM Tris-HCl, pH 7.5, 300 mM NaCl, 5% glycerol, 1 mM TCEP, 10 mM GSH). The target protein was concentrated in the ultra-filtration tube with MW cutoff 30 kDa and further purified by size-exclusion chromatography on a Superdex-200 column (GE Healthcare) in buffer A. Fractions containing MiD49-GST (126-454) were pooled, concentrated, flash-frozen as single-use aliquots in liquid nitrogen and stored at −80° C.
A total of 100 nl of compounds were plated in a 384-well AlphaPlate (PerkinElmer, Waltham, MA) at concentrations 100 uM to […] in DMSO (dilution by 3.165 for 11 concentration levels). Recombinant His-DRP1 (200 nM), MiD49-GST (20 nM), and GMP-PNP (100 uM) were mixed in assay buffer (PBS with 1.5% BSA, 1 mM DTT). Five microliters of the protein mixture were added to the plate and incubate at room temperature for 30 min. Glutathione donor beads and nickel chelate acceptor beads were diluted and mixed in assay buffer to obtain 40 μg/ml of each bead. Five microliters of the mixed beads were added to each well on the microplate leading to a final bead concentration of 20 µg/ml per well. The sealed plate was incubated at room temperature for 60 min and protected from light. The AlphaLISA signal was detected with an EnVision Multilabel Reader (excitation at 680 and emission 615 nm). GraphPad Prism was used to calculate the IC50 by applying sigmoidal dose-response fit (variable slope).
For `COCCOc1cc(-c2cncs2)nc2ccc(NC(=O)[C@@H]3C[C@H]3C#N)cc12` (racemic) [Example 19, trans-2-cyano-N-(4-(2-methoxyethoxy)-2-(thiazol-5-yl)quinolin-6-yl)cyclopropane-1-carboxamide], the pIC50 – broadly, the IC50 on a negative log10 scale, so that one unit is a factor of ten – was 6.00 to 6.30.

Compound `COCCOc1cc(-c2cncs2)nc2ccc(NC(=O)C3COC3)cc12` [Example 1, N-(4-(2-methoxyethoxy)-2-(thiazol-5-yl)quinolin-6-yl)oxetane-3-carboxamide] showed a pIC50 above 6.30.

On to `CCOc1cc(-n2cnc(C)c2)nc2ccc(NC(=O)C3COC3)cc12` [Example 2, N-(4-ethoxy-2-(4-methyl-1H-imidazol-1-yl)quinolin-6-yl)oxetane-3-carboxamide], for which the negative-log IC50 (pIC50) was above 6.30.

As for `CCOc1cc(-c2cncs2)nc2ccc(NC(=O)C3COC3)cc12` [Example 3, N-(4-ethoxy-2-(thiazol-5-yl)quinolin-6-yl)oxetane-3-carboxamide], the pIC50 was above 6.30.

The compound `CCOc1cc(-c2cncs2)nc2ccc(NC(=O)C34CC(C3)C4)cc12` [Example 4, N-(4-ethoxy-2-(thiazol-5-yl)quinolin-6-yl)bicyclo[1.1.1]pentane-1-carboxamide] had a pIC50 of 6.00 to 6.30.

`COc1cc(-c2cncs2)nc2ccc(NC(=O)C3COC3)cc12` [Example 5, N-(4-methoxy-2-(thiazol-5-yl)quinolin-6-yl) oxetane-3-carboxamide] gave a pIC50 of 6.00 to 6.30.

Consider `CCOc1cc(-c2cnc(C)s2)nc2ccc(NC(=O)C3COC3)cc12` [Example 6, N-(4-ethoxy-2-(2-methylthiazol-5-yl)quinolin-6-yl) oxetane-3-carboxamide], for which the pIC50 is above 6.30.

As to `CCOc1cc(-c2cnc(OC)s2)nc2ccc(NC(=O)C3COC3)cc12` [Example 7, N-(4-ethoxy-2-(2-methoxythiazol-5-yl)quinolin-6-yl) oxetane-3-carboxamide], the pIC50 is above 6.30.

`CCOc1cc(-c2cnc(C3CC3)s2)nc2ccc(NC(=O)C3COC3)cc12` [Example 8, N-(2-(2-cyclopropylthiazol-5-yl)-4-ethoxyquinolin-6-yl) oxetane-3-carboxamide]: the pIC50 is 6.00 to 6.30.

In the case of `O=C(Nc1ccc2nc(-c3cncs3)cc(OCCO)c2c1)C1COC1` [Example 9, N-(4-(2-hydroxyethoxy)-2-(thiazol-5-yl)quinolin-6-yl) oxetane-3-carboxamide], the pIC50 is above 6.30.

`O=C(Nc1ccc2nc(-c3cncs3)cc(OCCO)c2c1)C(F)(F)F` [Example 10, 2,2,2-trifluoro-N-(4-(2-hydroxyethoxy)-2-(thiazol-5-yl)quinolin-6-yl)acetamide]: the pIC50 is 5.00 to 6.00.

For the compound `COCCOc1cc(-c2cnc(C)s2)nc2ccc(NC(=O)C3COC3)cc12` [Example 11, N-(4-(2-methoxyethoxy)-2-(2-methylthiazol-5-yl)quinolin-6-yl)oxetane-3-carboxamide], the pIC50 was 6.00 to 6.30.

With `CCOc1cc(-c2cnc(Cl)s2)nc2ccc(NC(=O)C3COC3)cc12` [Example 12, N-(2-(2-chlorothiazol-5-yl)-4-ethoxyquinolin-6-yl)oxetane-3-carboxamide], the pIC50 is 5.00 to 6.00.

The compound `COCCOc1cc(-c2cncs2)nc2ccc(NC(=O)CO)cc12` [Example 13, 2-hydroxy-N-(4-(2-methoxyethoxy)-2-(thiazol-5-yl)quinolin-6-yl) acetamide] gave a pIC50 of 5.00 to 6.00.

`COCCOc1cc(-c2cncs2)nc2ccc(NC(=O)[C@H](C)O)cc12` [Example 14, (S)-2-hydroxy-N-(4-(2-methoxyethoxy)-2-(thiazol-5-yl)quinolin-6-yl)propanamide] showed a pIC50 of 5.00 to 6.00.

The compound `COCCOc1cc(-c2cncs2)nc2ccc(NC(=O)[C@@H](C)O)cc12` [Example 15, (R)-2-hydroxy-N-(4-(2-methoxyethoxy)-2-(thiazol-5-yl)quinolin-6-yl)propanamide] gave a pIC50 of 5.00 to 6.00.

Consider `COCCOc1cc(-c2cncs2)nc2ccc(NC(=O)[C@H]3C[C@@H](O)C3)cc12` [Example 16, cis-3-hydroxy-N-(4-(2-methoxyethoxy)-2-(thiazol-5-yl)quinolin-6-yl)cyclobutane-1-carboxamide], for which the pIC50 is above 6.30.

Regarding `COCCOc1cc(-c2cncs2)nc2ccc(NC(=O)[C@H]3C[C@H](O)C3)cc12` [Example 17, trans-3-hydroxy-N-(4-(2-methoxyethoxy)-2-(thiazol-5-yl)quinolin-6-yl)cyclobutane-1-carboxamide], the pIC50 is above 6.30.

In turn, `COCCOc1cc(-c2cncs2)nc2ccc(NC(=O)C3CC3C)cc12` (stereo not shown) [Example 18, N-(4-(2-methoxyethoxy)-2-(thiazol-5-yl)quinolin-6-yl)-2-methylcyclopropane-1-carboxamide] had a pIC50 above 6.30.

The compound `COCCOc1cc(-c2cncs2)nc2ccc(NC(=O)C3CC3C(F)(F)F)cc12` (stereo not shown) [Example 20, N-(4-(2-methoxyethoxy)-2-(thiazol-5-yl)quinolin-6-yl)-2-(trifluoromethyl)cyclopropane-1-carboxamide] showed a pIC50 of 5.00 to 6.00.

`COCCOc1cc(-c2cncs2)nc2ccc(NC(=O)COC)cc12` [Example 21, 2-methoxy-N-(4-(2-methoxyethoxy)-2-(thiazol-5-yl)quinolin-6-yl)acetamide] had a negative-log IC50 (pIC50) of 5.00 to 6.00.

`COCCOc1cc(-c2cncs2)nc2ccc(NC(=O)C(C)OC)cc12` (stereo not shown) [Example 22, 2-methoxy-N-(4-(2-methoxyethoxy)-2-(thiazol-5-yl)quinolin-6-yl)propanamide] had a pIC50 above 6.30.

`COCCOc1cc(-c2cncs2)nc2ccc(NC(=O)C3CCCOC3)cc12` (stereo not shown) [Example 23, N-(4-(2-methoxyethoxy)-2-(thiazol-5-yl)quinolin-6-yl)tetrahydro-2H-pyran-3-carboxamide] gave a pIC50 above 6.30.

`COCCOc1cc(-c2cncs2)nc2ccc(NC(=O)CCOC)cc12` [Example 24, 3-methoxy-N-(4-(2-methoxyethoxy)-2-(thiazol-5-yl)quinolin-6-yl)propanamide] gave a pIC50 of 6.00 to 6.30.

`CCCOC(C)C(=O)Nc1ccc2nc(-c3cncs3)cc(OCCOC)c2c1` (stereo not shown) [Example 25, N-(4-(2-methoxyethoxy)-2-(thiazol-5-yl)quinolin-6-yl)-2-propoxypropanamide] gave a pIC50 above 6.30.

Compound `CCOC(C)C(=O)Nc1ccc2nc(-c3cncs3)cc(OCCOC)c2c1` (stereo not shown) [Example 26, 2-ethoxy-N-(4-(2-methoxyethoxy)-2-(thiazol-5-yl)quinolin-6-yl)propanamide] had a negative-log IC50 (pIC50) above 6.30.

Compound `COCCOc1cc(-c2cncs2)nc2ccc(NC(=O)C(F)(F)CO)cc12` [Example 27, 2,2-difluoro-3-hydroxy-N-(4-(2-methoxyethoxy)-2-(thiazol-5-yl)quinolin-6-yl)propanamide] showed a pIC50 of 6.00 to 6.30.

The compound `COCCOc1cc(-c2cncs2)nc2ccc(NC(=O)C(C)C#N)cc12` (stereo not shown) [Example 28, 2-cyano-N-(4-(2-methoxyethoxy)-2-(thiazol-5-yl)quinolin-6-yl)propanamide] gave a pIC50 above 6.30.

In turn, `COCCOc1cc(-c2cncs2)nc2ccc(NC(=O)C3(OC)CC3)cc12` [Example 29, 1-methoxy-N-(4-(2-methoxyethoxy)-2-(thiazol-5-yl)quinolin-6-yl)cyclopropane-1-carboxamide] had a negative-log IC50 (pIC50) below 5.00.

On to `COCCOc1cc(-c2cncs2)nc2ccc(NC(=O)C3CC(F)(F)C3)cc12` [Example 30, 3,3-difluoro-N-(4-(2-methoxyethoxy)-2-(thiazol-5-yl)quinolin-6-yl)cyclobutane-1-carboxamide], for which the pIC50 was 5.00 to 6.00.

On to `COCCOc1cc(-c2cncs2)nc2ccc(NC(=O)C34CC(C3)C4)cc12` [Example 31, N-(4-(2-methoxyethoxy)-2-(thiazol-5-yl)quinolin-6-yl)bicyclo[1.1.1]pentane-1-carboxamide], for which the pIC50 was 5.00 to 6.00.
